Data: patent US5391540A, “Substituted pyridine compounds” (Rohm and Haas Company, priority 1993, dated 1995)
“And” between values parts separate entries of the source, which are not always exact repeats. Equal entries are not always repeated.

Legend:
Assay type in all cases: in vivo
Dobr = experiment: plant injury after spraying emerged plants (Table D)
Text: (§1) Topsoil (silt loam) is sieved through a screen having 1.27 cm openings. In some of the tests the soil was mixed with fertilizer (1225 g/cu. m of 12/5/9 containing isobutylidene diurea), while in other tests the fertilizer was omitted. This mixture is steam sterilized and then placed in aluminum pans 6.985 cm deep having ten holes in the bottom each 0.635 cm in diameter. The soil mixture is compacted to a depth of 1.27 cm. from the top of the pan. A predetermined number of seeds of each of several dicotyledonous and monocotyledonous annual plant species and/or vegetative propagules for the perennial plant species are placed on the soil and pressed into the soil surface. The seeds and/or vegetative propagules are covered with 1.27 cm of a mixture of 50% topsoil and 50% of a mixture of Canadian sphagnum peat moss, vermiculite and a wetting agent. The pans are then placed on a capillary mat on a greenhouse bench and subirrigated as needed. After the plants reach the desired stage (9 to 14 days, 1 to 3 true leaf stage), each pan (except the control pans) is removed to a spraying chamber and sprayed by means of an atomizer, operating at a spray pressure of 170.3 kPa ([…]) at the application rates noted in Table D. In the spray solution is an amount of an emulsifying agent mixture (35% butylamine salt of dodecylbenzenesulfonic acid and 65% tall oil condensed with ethylene oxide in the ratio of 11 mols of ethylene oxide/mol of tall oil) to give a spray solution or suspension. The spray solution or suspension contains a sufficient amount of the candidate chemical in order to give application rates of the active ingredient corresponding to those shown in Table D below while applying a total amount of solution or suspension equivalent to 1870 L/Ha (200 gallons/acre). The pans are returned to the greenhouse and watered as before and the injury to the plants as compared to the control pans is observed at approximately 10-14 days (usually 11 days).
(§2) In the following Table D the legends used to identify the plant species are the same as those used in the preceding Table B.

Wibw = experiment: as above; design: scale not given here
Summary of the method: (§3)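 Seeds or vegetative propagules of annual and perennial species were pressed into steam-sterilized silt loam, covered with 1.27 cm of topsoil/peat-moss/vermiculite mix, and grown on greenhouse benches with subirrigation. Injury was scored on emerged plants after spraying.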

Hese = experiment: as above; design: scale not given here
Summary of the method: as §3

Vele = experiment: as above; design: scale not given here
Summary of the method: as §3

Rape = experiment: as above; design: scale not given here
Text: as §1, §2

Jiwe = experiment: as above; design: scale not given here
Text: as §1, §2

Cotz = experiment: as above; design: scale not given here
Text: as §1, §2

Annual Bluegrass = experiment: Pre-emergent herbicidal activity (Table A); settings: pre-emergence, Anbg, 11.2 kg/ha, 10-14 days, read-out: herbicidal rating (% inhibition)
Summary of the method: (§4)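 Compound incorporated into the cover-soil layer over sown seed at a rate equivalent to 11.2 kg/ha (acetone or water carrier). Greenhouse growth with watering as needed; ratings reflect percent inhibition per species, recorded around day 11 (range 10–14).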

Indian Mustard = experiment: Pre-emergent herbicidal activity (Table A); settings: Brassica juncea, pre-emergence, Inmu, 11.2 kg/ha, 10-14 days, read-out: herbicidal rating (% inhibition)
Summary of the method: as §4

Wild Buckwheat = experiment: Pre-emergent herbicidal activity (Table A); settings: Fallopia convolvulus, pre-emergence, Wibw, 11.2 kg/ha, 10-14 days, read-out: herbicidal rating (% inhibition)
Summary of the method: as §4

Seedling Johnsongrass = experiment: Pre-emergent herbicidal activity (Table A); settings: Sorghum halepense, pre-emergence, Sejg, 11.2 kg/ha, 10-14 days, read-out: herbicidal rating (% inhibition)
Summary of the method: as §4

SMILES | plant injury rating, Dobr (Dobr; 1.1210 kg/ha) | plant injury rating, Wibw (Wibw; 0.0701 kg/ha) | plant injury rating, Wibw (Wibw; 0.2803 kg/ha) | plant injury rating, Wibw (Wibw; 1.1210 kg/ha) | plant injury rating, Hese (Hese; 0.0701 kg/ha) | plant injury rating, Hese (Hese; 0.2803 kg/ha) | plant injury rating, Hese (Hese; 1.1210 kg/ha) | plant injury rating, Vele (Vele; 0.0701 kg/ha) | plant injury rating, Vele (Vele; 0.2803 kg/ha) | plant injury rating, Vele (Vele; 1.1210 kg/ha) | plant injury rating, Rape (Rape; 0.0701 kg/ha) | plant injury rating, Cotz (Cotz; 0.0701 kg/ha) | plant injury rating, Dobr (Dobr; 0.0701 kg/ha) | plant injury rating, Dobr (Dobr; 0.2803 kg/ha) | inhibition at 11200 g/ha (Annual Bluegrass) | inhibition at 11200 g/ha (Indian Mustard) | inhibition at 11200 g/ha (Wild Buckwheat) | inhibition at 11200 g/ha (Seedling Johnsongrass) | plant injury rating, Wibw (Wibw; 5.6050 kg/ha) | plant injury rating, Hese (Hese; 5.6050 kg/ha) | other results
COC(=O)c1c(OC)nc(C(F)(F)F)c(N=CSC)c1CC(C)C [Compound 77, 3-pyridinecarboxylic acid, 2-methoxy-4-(2-methylpropyl)-5-[[(methylthio)methylene]amino]-6-(trifluoromethyl)-, methyl ester] | 0 | – | – | – | – | – | – | – | – | – | – | – | – | – | – | – | – | – | – | – | plant injury rating, Dobr (Dobr; 2.8025 kg/ha): 0; plant injury rating, Dobr (Dobr; 11.2100 kg/ha): 0
COC(=O)c1c(O)nc(C(F)(F)F)c(C(=O)OC)c1CC(C)C [Compound 1, 3,5-pyridinedicarboxylic acid, 2-hydroxy-4-(2-methylpropyl)-6-(trifluoromethyl)-, dimethyl ester] | 0 | 0 | 1 | 2 | 1 | 2 | 2 | 1 | 2 | 2 | 1 | 0 | 0 | 0 | – | – | – | – | – | – | plant injury rating, Jiwe (Jiwe; 0.0701 kg/ha): 0; plant injury rating, Jiwe (Jiwe; 0.2803 kg/ha): 2 and 1; plant injury rating, Jiwe (Jiwe; 1.1210 kg/ha): 2; plant injury rating, Jiwe (Jiwe; 5.3808 kg/ha): 4 and 3; plant injury rating, Dobr (Dobr; 5.3808 kg/ha): 0
COC(=O)c1c(OC)nc(C(F)(F)F)c(C(=O)n2cccn2)c1CC1CC1 [Compound 116, 3-pyridinecarboxylic acid, 4-(cyclopropylmethyl)-2-methoxy-5-(1H-pyrazo1-1-ylcarbonyl)-6-(trifluoromethyl)-, methyl ester] | 0 | 1 | 1 | 2 | 1 | 1 | 2 | 1 | 2 | 3 | 1 | 0 | 0 | 0 | 75 to 100% | 75 to 100% | 75 to 100% | 75 to 100% | 2 | 2 | plant injury rating, Vele (Vele; 5.6050 kg/ha): 2; plant injury rating, Rape (Rape; 0.2803 kg/ha): 2; plant injury rating, Rape (Rape; 1.1210 kg/ha): 3; plant injury rating, Rape (Rape; 5.6050 kg/ha): 3; plant injury rating, Cotz (Cotz; 0.2803 kg/ha): 0; plant injury rating, Cotz (Cotz; 1.1210 kg/ha): 1; plant injury rating, Cotz (Cotz; 5.6050 kg/ha): 1; plant injury rating, Dobr (Dobr; 5.6050 kg/ha): 0
COC(=O)c1c(OC)nc(C(F)(F)F)c(C(=O)n2ccc(F)n2)c1C1CCC1 [Compound 140, 3-pyridinecarboxylic acid, 4-cyclobuty1-5-[(3-fluoro-1H-pyrazo1-1-yl)carbonyl]-2-methoxy-6-(trifluoromethyl)-, methyl ester] | 0 | – | 0 | – | – | 3 | 3 | – | 3 | 2 | – | – | – | 0 | 75 to 100% | 75 to 100% | 75 to 100% | 75 to 100% | 1 | 3 | plant injury rating, Vele (Vele; 5.6050 kg/ha): 2; plant injury rating, Rape (Rape; 0.2803 kg/ha): 3; plant injury rating, Rape (Rape; 1.1210 kg/ha): 3; plant injury rating, Rape (Rape; 5.6050 kg/ha): 3; plant injury rating, Cotz (Cotz; 1.1210 kg/ha): 1; plant injury rating, Cotz (Cotz; 5.6050 kg/ha): 1; plant injury rating, Dobr (Dobr; 5.6050 kg/ha): 0
